Measurements published in patent US10463671B2, “Combination therapy for treating cancer” (Epizyme, Inc., priority 2013, dated 2019).

Tested on: glucocorticoid signaling genes in SU-DHL10 cells
Test: RT2 Glucocorticoid Signaling PCR array
Type: cell-based
Set-up: IL10 Ct Values / TNF Ct Values: unit not given here
Conditions: SUDHL10, 4 days

Structure (SMILES): CCN(c1cc(-c2ccc(CN3CCOCC3)cc2)cc(C(=O)NCc2c(C)cc(C)[nH]c2=O)c1C)C1CCOCC1 [Compound 44]
- ACTB Ct Values: 14.828
- ADARB1 Ct Values: 31.215
- AFF1 Ct Values: 29.849
- AK2 Ct Values: 20.974
- AMPD3 Ct Values: 27.654
- ANGPTL4 Ct Values: 32.107
- ANXA4 Ct Values: 24.961
- ARID5B Ct Values: 28.208
- ASPH Ct Values: 23.837
- ATF4 Ct Values: 20.607
- B2M Ct Values: 19.147
- BCL6 Ct Values: 22.639
- CEBPA Ct Values: 28.900
- CEBPB Ct Values: 26.624
- CREB1 Ct Values: 23.809
- CREB3 Ct Values: 26.452
- CREB3L4 Ct Values: 26.139
- CYB561 Ct Values: 37.004
- DDIT4 Ct Values: 26.109
- DUSP1 Ct Values: 31.300
- EHD3 Ct Values: 26.768
- FKBP5 Ct Values: 22.883
- FOSL2 Ct Values: 32.931
- GAPDH Ct Values: 17.793
- GDPD1 Ct Values: 30.943
- GOT1 Ct Values: 25.306
- H6PD Ct Values: 28.126
- HNRPLL Ct Values: 23.764
- HPRT1 Ct Values: 20.615
- IL1RN Ct Values: 32.182
- IL6R Ct Values: 33.807
- IL10 Ct Values: 32.505
- KLF9 Ct Values: 32.525
- KLF13 Ct Values: 24.536
- LOX Ct Values: 35.385
- MERTK Ct Values: 34.652
- MT2A Ct Values: 37.225
- NFKBIA Ct Values: 23.654
- NR3C1 Ct Values: 23.754
- PDCD7 Ct Values: 25.123
- PDP1 Ct Values: 26.175
- PER1 Ct Values: 27.710
- PER2 Ct Values: 24.780
- PIK3R1 Ct Values: 24.661
- PLEKHF1 Ct Values: 28.979
- POU2F1 Ct Values: 25.842
- POU2F2 Ct Values: 25.098
- RASA3 Ct Values: 24.277
- RGS2 Ct Values: 25.587
- RHOB Ct Values: 27.829
- RHOJ Ct Values: 36.530
- RPLP0 Ct Values: 16.821
- SESN1 Ct Values: 27.480
- SGK1 Ct Values: 25.358
- SLC10A6 Ct Values: 37.060
- SLC19A2 Ct Values: 30.597
- SLC22A5 Ct Values: 30.263
- SNTA1 Ct Values: 27.003
- SPHK1 Ct Values: 27.804
- SPSB1 Ct Values: 26.133
- STAT5A Ct Values: 25.275
- STAT5B Ct Values: 24.281
- TBL1XR1 Ct Values: 21.846
- TNF Ct Values: 23.725
- TNFAIP3 Ct Values: 27.677
- TSC22D3 Ct Values: 28.871
- USP2 Ct Values: 23.434
- USP54 Ct Values: 27.789
- VDR Ct Values: 29.514
- VLDLR Ct Values: 32.904
- ZFP36 Ct Values: 26.643
- ZHX3 Ct Values: 26.305
- ZNF2B1 Ct Values: 23.857
- ACTB ΔCT (B2M) (normalized to B2M): −4.319
- ADARB1 ΔCT (B2M) (normalized to B2M): 12.068
- AFF1 ΔCT (B2M) (normalized to B2M): 10.702
- AK2 ΔCT (B2M) (normalized to B2M): 1.827
- AMPD3 ΔCT (B2M) (normalized to B2M): 8.507
- ANGPTL4 ΔCT (B2M) (normalized to B2M): 12.960
- ANXA4 ΔCT (B2M) (normalized to B2M): 5.814
- ARID5B ΔCT (B2M) (normalized to B2M): 9.061
- ASPH ΔCT (B2M) (normalized to B2M): 4.690
- ATF4 ΔCT (B2M) (normalized to B2M): 1.460
- B2M ΔCT (B2M) (normalized to B2M): 0.000
- BCL6 ΔCT (B2M) (normalized to B2M): 3.492
- CEBPA ΔCT (B2M) (normalized to B2M): 9.753
- CEBPB ΔCT (B2M) (normalized to B2M): 7.477
- CREB1 ΔCT (B2M) (normalized to B2M): 4.662
- CREB3L4 ΔCT (B2M) (normalized to B2M): 6.992
- CREB3 ΔCT (B2M) (normalized to B2M): 7.305
- CYB561 ΔCT (B2M) (normalized to B2M): 17.857
- DDIT4 ΔCT (B2M) (normalized to B2M): 6.962
- DUSP1 ΔCT (B2M) (normalized to B2M): 12.153
- EHD3 ΔCT (B2M) (normalized to B2M): 7.621
- FKBP5 ΔCT (B2M) (normalized to B2M): 3.736
- FOSL2 ΔCT (B2M) (normalized to B2M): 13.784
- GAPDH ΔCT (B2M) (normalized to B2M): −1.354
- GDPD1 ΔCT (B2M) (normalized to B2M): 11.796
- GOT1 ΔCT (B2M) (normalized to B2M): 6.159
- H6PD ΔCT (B2M) (normalized to B2M): 8.979
- HNRPLL ΔCT (B2M) (normalized to B2M): 4.617
- HPRT1 ΔCT (B2M) (normalized to B2M): 1.468
- IL1RN ΔCT (B2M) (normalized to B2M): 13.035
- IL6R ΔCT (B2M) (normalized to B2M): 14.660
- IL10 ΔCT (B2M) (normalized to B2M): 13.358
- KLF9 ΔCT (B2M) (normalized to B2M): 13.378
- KLF13 ΔCT (B2M) (normalized to B2M): 5.389
- LOX ΔCT (B2M) (normalized to B2M): 16.238
- MERTK ΔCT (B2M) (normalized to B2M): 15.505
- MT2A ΔCT (B2M) (normalized to B2M): 18.078
- NFKBIA ΔCT (B2M) (normalized to B2M): 4.507
- NR3C1 ΔCT (B2M) (normalized to B2M): 4.617
- PDCD7 ΔCT (B2M) (normalized to B2M): 5.976
- PDP1 ΔCT (B2M) (normalized to B2M): 7.028
- PER1 ΔCT (B2M) (normalized to B2M): 8.563
- PER2 ΔCT (B2M) (normalized to B2M): 5.633
- PIK3R1 ΔCT (B2M) (normalized to B2M): 5.514
- PLEKHF1 ΔCT (B2M) (normalized to B2M): 9.832
- POU2F1 ΔCT (B2M) (normalized to B2M): 6.695
- POU2F2 ΔCT (B2M) (normalized to B2M): 5.951
- RASA3 ΔCT (B2M) (normalized to B2M): 5.130
- RGS2 ΔCT (B2M) (normalized to B2M): 6.440
- RHOB ΔCT (B2M) (normalized to B2M): 8.682
- RHOJ ΔCT (B2M) (normalized to B2M): 17.383
- RPLP0 ΔCT (B2M) (normalized to B2M): −2.326
- SESN1 ΔCT (B2M) (normalized to B2M): 8.333
- SGK1 ΔCT (B2M) (normalized to B2M): 6.211
- SLC10A6 ΔCT (B2M) (normalized to B2M): 17.913
- SLC19A2 ΔCT (B2M) (normalized to B2M): 11.450
- SLC22A5 ΔCT (B2M) (normalized to B2M): 11.116
- SNTA1 ΔCT (B2M) (normalized to B2M): 7.856
- SPHK1 ΔCT (B2M) (normalized to B2M): 8.657
- SPSB1 ΔCT (B2M) (normalized to B2M): 6.986
- STAT5A ΔCT (B2M) (normalized to B2M): 6.128
- STAT5B ΔCT (B2M) (normalized to B2M): 5.134
- TBL1XR1 ΔCT (B2M) (normalized to B2M): 2.699
- TNF ΔCT (B2M) (normalized to B2M): 4.578
- TNFAIP3 ΔCT (B2M) (normalized to B2M): 8.530
- TSC22D3 ΔCT (B2M) (normalized to B2M): 9.724
- USP2 ΔCT (B2M) (normalized to B2M): 4.287
- USP54 ΔCT (B2M) (normalized to B2M): 8.642
- VDR ΔCT (B2M) (normalized to B2M): 10.367
- VLDLR ΔCT (B2M) (normalized to B2M): 13.757
- ZFP36 ΔCT (B2M) (normalized to B2M): 7.496
- ZHX3 ΔCT (B2M) (normalized to B2M): 7.158
- ZNF2B1 ΔCT (B2M) (normalized to B2M): 4.710
- ARID5B ΔΔCT (vs DMSO): 0.650
- EHD3 ΔΔCT (vs DMSO): −0.885
- FKBP5 ΔΔCT (vs DMSO): 0.042
- PIK3R1 ΔΔCT (vs DMSO): 0.431
- SLC19A2 ΔΔCT (vs DMSO): −1.143
- USP54 ΔΔCT (vs DMSO): −0.064
